# Results published in patent US20090264401A1, “SUBSTITUTED PYRIMIDIN-5-CARBOXAMIDES 281” (AstraZeneca AB, priority 2008, published 2009).
# Biological target: T1, human 11βHSD1 enzyme (Homo sapiens, UniProt P28845)
# T1 construct: baculovirus expressed N terminal 6-His tagged full length human 11βHSD1 enzyme; 6-His (N); made in house
# Assay: 11βHSD1 cortisone to cortisol conversion, competitive HTRF assay
# Type: biochemical
# Conditions: human 11-βHSD; test concentration of 30 μM of compound
# Description: The evaluation of compounds described herein was carried out using a baculovirus expressed N terminal 6-His tagged full length human 11βHSD1 enzyme(*1). The enzyme was purified from a detergent solubilised cell lysate, using a copper chelate column. Inhibitors of 11βHSD1 reduce the conversion of cortisone to cortisol, which is identified by an increase in signal, in the above assay.
# Compounds to be tested were dissolved in dimethyl sulphoxide (DMSO) to 10 mM and diluted further in assay buffer containing 1% DMSO to 10 fold the final assay concentration. Diluted compounds were then plated into black 384 well plates (Matrix, Hudson N.H., USA).
# Fluorescence at 665 nm and 620 nm was measured and the 665 nm:620 nm ratio calculated using an Envision plate reader.
# T1 sequence (P28845 whole entry): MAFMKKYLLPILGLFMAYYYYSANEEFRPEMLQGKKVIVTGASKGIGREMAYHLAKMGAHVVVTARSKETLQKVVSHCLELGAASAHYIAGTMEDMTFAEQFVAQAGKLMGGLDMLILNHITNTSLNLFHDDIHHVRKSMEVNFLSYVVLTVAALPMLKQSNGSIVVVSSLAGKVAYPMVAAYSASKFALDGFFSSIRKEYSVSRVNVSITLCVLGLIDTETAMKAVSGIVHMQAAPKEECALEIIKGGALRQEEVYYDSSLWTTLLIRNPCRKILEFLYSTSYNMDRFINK
row,inhibition at 30 µM [%],Compound
1,99.2,"O=C(N[C@H]1C2CC3CC1C[C@@](O)(C3)C2)c1cnc(N2CCCSCC2)nc1C1CC1 [Example 43, 4-Cyclopropyl-N-[(2r,5s)-5-hydroxyadamantan-2-yl]-2-(1,4-thiazepan-4-yl)pyrimidine-5-carboxamide]"
2,98,"O=C(N[C@H]1C2CC3CC1C[C@@](O)(C3)C2)c1cnc(N2CCC[S+]([O-])CC2)nc1C1CC1 (some centres unmarked) [Example 44, 4-Cyclopropyl-N-[(2r,5s)-5-hydroxyadamantan-2-yl]-2-(1-oxo-1,4-thiazepan-4-yl)pyrimidine-5-carboxamide]"
3,98.5,"O=C(N[C@H]1C2CC3CC1C[C@@](O)(C3)C2)c1cnc(N2CCCS(=O)(=O)CC2)nc1C1CC1 [Example 45, 4-Cyclopropyl-2-(1,1-dioxo-1,4-thiazepan-4-yl)-N-[(2r,5s)-5-hydroxyadamantan-2-yl]pyrimidine-5-carboxamide]"
4,104,"O=C(N[C@H]1C2CC3CC1C[C@@](O)(C3)C2)c1cnc(N2CC3CC2CS3)nc1C1CC1 [Example 46, 4-Cyclopropyl-N-[(2r,5s)-5-hydroxyadamantan-2-yl]-2-(3-thia-6-azabicyclo[2.2.1]heptan-6-yl)pyrimidine-5-carboxamide]"
5,97.3,"O=C(N[C@H]1C2CC3CC1C[C@@](O)(C3)C2)c1cnc(N2CC3CC2C[S+]3[O-])nc1C1CC1 (some centres unmarked) [Example 47, 4-Cyclopropyl-N-[(2r,5s)-5-hydroxyadamantan-2-yl]-2-(3-oxo-3 ?4-thia-6-azabicyclo[2.2.1]heptan-6-yl)pyrimidine-5-carboxamide]"
6,100,"O=C(N[C@H]1C2CC3CC1C[C@@](O)(C3)C2)c1cnc(N2CC3CC2CS3(=O)=O)nc1C1CC1 [Example 48, 4-Cyclopropyl-2-(3,3-dioxo-3λ6-thia-6-azabicyclo[2.2.1]heptan-6-yl)-N-[(2r,5 s)-5-hydroxyadamantan-2-yl]pyrimidine-5-carboxamide]"
7,99.3,"Nc1ncc(C(=O)N[C@H]2C3CC4CC2C[C@@](O)(C4)C3)c(C2CC2)n1 [Example 49, 2-Amino-4-cyclopropyl-N-[(2r,5s)-5-hydroxyadamantan-2-yl]pyrimidine-5-carboxamide]"
8,92.5,"O=C(N[C@H]1C2CC3CC1C[C@@](O)(C3)C2)c1cnc(N2CC(F)(F)C2)nc1C1CC1 [Example 52, 4-cyclopropyl-2-(3,3-difluoroazetidin-1-yl)-N-[(2r,5s)-5-hydroxyadamantan-2-yl]pyrimidine-5-carboxamide]"
9,102,"O=C(N[C@H]1C2CC3CC1C[C@@](O)(C3)C2)c1cnc(N2CCC2)nc1C1CC1 [Example 53, 2-(azetidin-1-yl)-4-cyclopropyl-N-[(2r,5s)-5-hydroxyadamantan-2-yl]pyrimidine-5-carboxamide]"
10,102,"O=C(N[C@H]1C2CC3CC1C[C@@](O)(C3)C2)c1cnc(NC2CCC2)nc1C1CC1 [Example 54, (cyclobutylamino)-4-cyclopropyl-N-[(2r,5s)-5-hydroxyadamantan-2-yl]pyrimidine-5-carboxamide]"
11,96.9,"COCCN1CCN(c2ncc(C(=O)N[C@H]3C4CC5CC3C[C@@](O)(C5)C4)c(C3CC3)n2)CC1 [Example 55, 4-cyclopropyl-N-[(2r,5s)-5-hydroxyadamantan-2-yl]-2-[4-(2-methoxyethyl)piperazin-1-yl]pyrimidine-5-carboxamide]"
12,90.2,"O=C(N[C@H]1C2CC3CC1C[C@@](O)(C3)C2)c1cnc(NC2CC2)nc1C1CC1 [Example 56, 4-cyclopropyl-2-(cyclopropylamino)-N-[(2r,5s)-5-hydroxyadamantan-2-yl]pyrimidine-5-carboxamide]"
13,102,"O=C(N[C@H]1C2CC3CC1C[C@@](O)(C3)C2)c1cnc(NC2CCCC2)nc1C1CC1 [Example 57, 2-(cyclopentylamino)-4-cyclopropyl-N-[(2r,5s)-5-hydroxyadamantan-2-yl]pyrimidine-5-carboxamide]"
14,99.6,"O=C(N[C@H]1C2CC3CC1C[C@@](O)(C3)C2)c1cnc(N2C[C@@H]3C[C@H]2CO3)nc1C1CC1 [Example 58, 4-cyclopropyl-N-[(2r,5s)-5-hydroxyadamantan-2-yl]-2-[(1S,4S)-2-oxa-5-azabicyclo[2.2.1]hept-5-yl]pyrimidine-5-carboxamide]"
15,95.6,"O=C(N[C@H]1C2CC3CC1C[C@@](O)(C3)C2)c1cnc(N2CCOC(CO)C2)nc1C1CC1 (some centres unmarked) [Example 59, 4-cyclopropyl-N-[(2r,5s)-5-hydroxyadamantan-2-yl]-2-[2-(hydroxymethyl)morpholin-4-yl]pyrimidine-5-carboxamide]"
16,95.1,"O=C(N[C@H]1C2CC3CC1C[C@@](O)(C3)C2)c1cnc(N2CCOCC2CO)nc1C1CC1 (some centres unmarked) [Example 60, 4-cyclopropyl-N-[(2r,5s)-5-hydroxyadamantan-2-yl]-2-[3-(hydroxymethyl)morpholin-4-yl]pyrimidine-5-carboxamide]"

row,inhibition at 30 µM [%],Compound
1,105,"CN(C)c1ncc(C(=O)N[C@H]2C3CC4CC2C[C@@](O)(C4)C3)c(C2CC2)n1 [Example 61, 4-cyclopropyl-2-(dimethylamino)-N-[(2r,5s)-5-hydroxyadamantan-2-yl]pyrimidine-5-carboxamide]"
2,99.9,"C[C@@H]1CN(c2ncc(C(=O)N[C@H]3C4CC5CC3C[C@@](O)(C5)C4)c(C3CC3)n2)C[C@H](C)N1 [Example 62, 4-cyclopropyl-2-[(3R,5S)-3,5-dimethylpiperazin-1-yl]-N-[(2r,5s)-5-hydroxyadamantan-2-yl]pyrimidine-5-carboxamide]"
3,92.7,"C[C@@H]1CN(c2ncc(C(=O)N[C@H]3C4CC5CC3C[C@@](O)(C5)C4)c(C3CC3)n2)C[C@@H](C)O1 [Example 63, 4-cyclopropyl-2-[(2R,6R)-2,6-dimethylmorpholin-4-yl]-N-[(2r,5s)-5-hydroxyadamantan-2-yl]pyrimidine-5-carboxamide]"
4,95.9,"CC(C)Nc1ncc(C(=O)N[C@H]2C3CC4CC2C[C@@](O)(C4)C3)c(C2CC2)n1 [Example 64, 4-cyclopropyl-N-[(2r,5s)-5-hydroxyadamantan-2-yl]-2-(isopropylamino)pyrimidine-5-carboxamide]"
5,98.3,"O=C(N[C@H]1C2CC3CC1C[C@@](O)(C3)C2)c1cnc(NC2CCS(=O)(=O)CC2)nc1C1CC1 [Example 68, 4-cyclopropyl-2-[(1,1-dioxidotetrahydro-2H-thiopyran-4-yl)amino]-N-[(2r,5s)-5-hydroxyadamantan-2-yl]pyrimidine-5-carboxamide]"
6,102,"O=C(N[C@H]1C2CC3CC1C[C@@](O)(C3)C2)c1cnc(NCCO)nc1C1CC1 [Example 69, 4-cyclopropyl-N-[(2r,5s)-5-hydroxyadamantan-2-yl]-2-[(2-hydroxyethyl)amino]pyrimidine-5-carboxamide]"
7,98,"CS(=O)(=O)N1CCN(c2ncc(C(=O)N[C@H]3C4CC5CC3C[C@@](O)(C5)C4)c(C3CC3)n2)CC1 [Example 70, 4-cyclopropyl-N-[(2r,5s)-5-hydroxyadamantan-2-yl]-2-(4-methylsulfonylpiperazin-1-yl)pyrimidine-5-carboxamide]"
8,91.6,"O=C(N[C@H]1C2CC3CC1C[C@@](O)(C3)C2)c1cnc(NCCN2CCOCC2)nc1C1CC1 [Example 72, 4-cyclopropyl-N-[(2r,5s)-5-hydroxyadamantan-2-yl]-2-[(2-morpholin-4-ylethyl)amino]pyrimidine-5-carboxamide]"
9,95.2,"C[C@@H]1CN(CCNc2ncc(C(=O)N[C@H]3C4CC5CC3C[C@@](O)(C5)C4)c(C3CC3)n2)C[C@H](C)O1 [Example 73, 4-cyclopropyl-2-({2-[(2R,6S)-2,6-dimethylmorpholin-4-yl]ethyl}amino)-N-[(2r,5s)-5-hydroxyadamantan-2-yl]pyrimidine-5-carboxamide]"
10,88.5,"CN1CCN(CCNc2ncc(C(=O)N[C@H]3C4CC5CC3C[C@@](O)(C5)C4)c(C3CC3)n2)CC1 [Example 74, 4-cyclopropyl-N-[(2r,5s)-5-hydroxyadamantan-2-yl]-2-{[2-(4-methylpiperazin-1-yl)ethyl]amino}pyrimidine-5-carboxamide]"
11,98.6,"O=C(N[C@H]1C2CC3CC1C[C@@](O)(C3)C2)c1cnc(OC2CCC2)nc1C1CC1 [Example 75, 2-(Cyclobutyloxy)-4-cyclopropyl-N-[(2r,5 s)-5-hydroxyadamantan-2-yl]pyrimidine-5-carboxamide]"
12,96.1,"CC(C)Oc1ncc(C(=O)N[C@H]2C3CC4CC2C[C@@](O)(C4)C3)c(C2CC2)n1 [Example 76, 4-cyclopropyl-N-[(2r,5s)-5-hydroxyadamantan-2-yl]-2-isopropoxypyrimidine-5-carboxamide]"
13,90.9,"O=C(N[C@H]1C2CC3CC1C[C@@](O)(C3)C2)c1cnc(OC2CCCC2)nc1C1CC1 [Example 77, 2-(cyclopentyloxy)-4-cyclopropyl-N-[(2r,5s)-5-hydroxyadamantan-2-yl]pyrimidine-5-carboxamide]"
14,93.1,"O=C(N[C@H]1C2CC3CC1C[C@@](O)(C3)C2)c1cnc(OC2COC2)nc1C1CC1 [Example 78, 4-cyclopropyl-N-[(2r,5s)-5-hydroxyadamantan-2-yl]-2-(oxetan-3-yloxy)pyrimidine-5-carboxamide]"
15,89.7,"O=C(c1cnc(N2CCOCC2)nc1C1CC1)N1CCC(c2cccnc2)C1 (centres unmarked) [Example 79, (4-Cyclopropyl-2-morpholinopyrimidin-5-yl)(3-(pyridin-3-yl)pyrrolidin-1-yl)methanone]"
16,99.2,"CC(=O)N1CCN(c2ncc(C(=O)N3CCC(c4cccnc4)C3)c(C3CC3)n2)CC1 (centres unmarked) [Example 80, 1-(4-(4-cyclopropyl-5-(3-(pyridin-3-yl)pyrrolidine-1-carbonyl)pyrimidin-2-yl)piperazin-1-yl)ethanone]"
